Values quoted from earlier work in patent US6818672B1, “Treating endometriosis or infertility, or improving fertility” (Columbia Laboratories, Inc., priority 1999, dated 2004).

Experiments:
[1] = system: myometrial activity, uterine blood flow, lower abdominal pain
[2] = intravenous administration

Structure (SMILES): CC(C)(C)NCC(O)c1cc(O)cc(O)c1 (centres unmarked) [terbutaline, 5-[2-[(1,1-dimethylethyl)amino]-1-hydroxyethyl]-1,3-benzenediol]
- Duration of effect of each spray ([1]; terbutaline inhalation, severe pain in essential dysmenorrhea): 1 h
- Effect on myometrial activity, uterine blood flow and pain in dysmenorrhea ([1]; women with primary dysmenorrhea): inhibit myometrial activity, increase blood flow to the uterus, and relieve the pain
- Bioavailability (after oral administration, extensive first-pass sulphation): 15 and 20%
- Decrease of bioavailability by concomitant food intake (oral administration with concomitant food intake): 30%
- Adverse effects [2]: palpitations and peripheral tremors
